Assay [1] relates to L6-myotubes. The experiment in a line: Glucose uptake in differentiated L6-myotubes (Biological Example 2). The class given is cell-based. The conditions noted are these: read-out: Biological example 2 (GU). How it is done: (§1) Compounds described in publications referenced and incorporated herein were screened in accordance with the procedures outlined in Biological example 2 and Biological example 3.
Differentiated L6-myotubes were serum-starved overnight in medium containing 0.5% fatty-acid free BSA and stimulated with isoprenaline or the test compound, with a final concentration of 1×10^−5 M. After 1 h 40 min the cells were washed with warm glucose free medium or PBS twice and another portion of agonist was added to the glucose free medium. After 20 min the cells were exposed to 50 nM ^3H-2-deoxyglucose for 10 min before washed with ice cold glucose free medium or PBS three times and lysed with 0.2 M NaOH, 400 μL/well, for 1 h at 60° C. The cell lysate was mixed with 4 mL scintillation buffer (Emulsifier Safe, Perkin Elmer) and the radioactivity was detected in a […] (Tri-Carb 4810TR, Perkin Elmer).

Assay [2] has as its system L6-myotubes. The experiment in a line: Measurement of intracellular cAMP levels in differentiated L6-myotubes (Biological Example 3). The class given is cell-based. The conditions noted are these: 0.25 h. How it is done: as §1
Differentiated L6-myotubes were serum-starved overnight and stimulated with isoprenaline or the test compound with a final concentration of 1×10^−5 M, for 15 min in stimulation buffer (HBSS supplemented with 1% BSA, 5 mM HEPES and 1 mM IBMX, pH 7.4). The medium was aspirated and 100 μL of 95% EtOH was added to each well of the 24-well plate and cells were kept at −20° C. overnight. The EtOH was allowed to evaporate and 500 μL of lysis buffer (1% BSA, 5 mM HEPES and 0.3% Tween-20, pH 7.4) was added to each well. The plate was kept at −80° C. for 30 min and then at −20° C. until the day of detection when the samples were thawed. Intracellular cAMP levels were detected using an alpha screen cAMP kit (6760635D from Perkin Elmer).
(In general: Cyclic AMP is a second messenger, typically raised through Gs and lowered through Gi signalling.)

[3] abbreviates: glucose uptake in differentiated L6-myotubes, compound at 10 μM, activity relative to isoproterenol at 10 μM.
The mark [4] stands for this setting: intracellular cAMP in differentiated L6-myotubes, compound at 10 μM, activity relative to isoproterenol at 10 μM.
[5] abbreviates: glucose uptake, compound at 10 μM relative to isoproterenol at 10 μM.
[6] abbreviates: intracellular cAMP, compound at 10 μM relative to isoproterenol at 10 μM.

Regarding `COC(=O)[C@H]1CC[C@H](CC(C)(C)NC[C@H](O)c2cccc(F)c2)CC1` [Compound 353, methyl (1R,4r)-4-{2-[(R)-2-(m-fluorophenyl)-2-hydroxyethylamino]-2-methylpropyl} cyclohexanecarboxylate], the values for the Emax at 10 µM in the assay with L6-myotubes [1] (setting [3]) and in the assay on L6-myotubes [2] (setting [4]) were more than 75% and less than 25%, respectively.

With `CC(=O)N[C@H]1CC[C@@H](CC(C)(C)NC[C@H](O)c2cccc(C(F)(F)F)n2)CC1` [Compound 462], the results for the Emax at 10 µM with L6-myotubes [1] (setting [3]) and in the assay with L6-myotubes [2] (setting [4]) were 25 to 50% and less than 25%, respectively.

Take `CC1(C)CC[C@H]([C@@H](O)c2cccc(F)c2)N1` [Compound 109, (S)-[(R)-5,5-dimethyl-2-pyrrolidinyl](m-fluorophenyl)methanol]: the Emax at 10 µM with L6-myotubes [1] (setting [5]) was 25 to 50%; in the assay on L6-myotubes [2] (setting [6]) it was less than 25%.

As for `CC(=O)N(Cc1ccccc1)[C@H]1CC[C@@H](C[C@@H]2CC[C@H]([C@@H](O)c3cccc(F)c3)N2)CC1` [Compound 479, N-[(1R,4s)-4-({(2S,5R)-5-[(S)-(m-fluorophenyl) hydroxymethyl]-2-pyrrolidinyl}methyl)cyclohexyl]-N-benzylacetamide], the Emax at 10 µM in the assay on L6-myotubes [1] (setting [3]) and with L6-myotubes [2] (setting [4]) was less than 25% each time.

For the molecule `CC(C)(C)NC[C@H](O)c1cccc(F)c1` [Compound 54, (R)-2-(tert-butylamino)-1-(m-fluorophenyl)-1-ethanol], the Emax at 10 µM is more than 75% with L6-myotubes [1] (setting [5]) and less than 25% in the assay with L6-myotubes [2] (setting [6]).

With `CC(C)(CC[C@H]1CC[C@H](O)CC1)NC[C@H](O)c1cccc(F)c1` [Compound 290, (R)-2-{1,1-dimethyl-3-[(1r,4S)-4-hydroxycyclohexyl]propylamino}-1-(m-fluorophenyl)-1-ethanol], the Emax at 10 µM in the assay on L6-myotubes [1] (setting [3]) is 25 to 50%; with L6-myotubes [2] (setting [4]), less than 25%.

For `CCC[C@@H]1CCC[C@@H]([C@H](O)c2cccc(F)c2)N1` [Compound 116], the Emax at 10 µM was 25 to 50% with L6-myotubes [1] (setting [5]) and less than 25% in the assay with L6-myotubes [2] (setting [6]).

Regarding `CS(=O)(=O)Nc1ccc(CC23CCC([C@H](O)c4cccc(F)c4)(CC2)N3)cc1` [Compound 475, (R)-(m-fluorophenyl)(4-{[p-(mesylamino)phenyl]methyl}-7-azabicyclo[[2.2.1]]hept-1-yl)methanol], the Emax at 10 µM in the assay on L6-myotubes [1] (setting [3]) is 50 to 75%; in the assay on L6-myotubes [2] (setting [4]), less than 25%.

Turning to `CCS(=O)(=O)N[C@H]1CC[C@@H](CC(C)(C)NC[C@H](O)c2cncc(F)c2)CC1` [Compound 524], the Emax at 10 µM with L6-myotubes [1] (setting [3]) was 50 to 75%; in the assay on L6-myotubes [2] (setting [4]) it was less than 25%.

Take `CC(C)(C[C@H]1CC[C@@H](NS(=O)(=O)C(F)(F)F)CC1)NC[C@H](O)c1cncc(F)c1` [Compound 522]: the results for the Emax at 10 µM in the assay on L6-myotubes [1] (setting [3]) and in the assay on L6-myotubes [2] (setting [4]) were more than 75% and less than 25%, respectively.

With `CO[C@H]1CC[C@@H](CCCNC[C@H](O)c2cccc(F)c2)CC1` [Compound 258, (R)-1-(m-fluorophenyl)-2-{3-[(1s,4R)-4-methoxycyclohexyl]propylamino}-1-ethanol], the results for the Emax at 10 µM in the assay on L6-myotubes [1] (setting [3]) and in the assay with L6-myotubes [2] (setting [4]) were more than 75% and 50 to 75%, respectively.

For the molecule `O[C@@H](c1cccc(F)c1)C12CCC(C/C=C/c3ccccc3)(CC1)N2` [Compound 533, (S)-{4-[(E)-3-phenyl-2-propenyl]-7-azabicyclo[[2.2.1]]hept-1-yl}(m-fluorophenyl)methanol], the Emax at 10 µM in the assay on L6-myotubes [1] (setting [3]) and with L6-myotubes [2] (setting [4]) was less than 25% throughout.

Regarding `CCC[C@@H]1CCC[C@@H]([C@H](O)c2cccc(Cl)c2)N1` [Compound 115], the Emax at 10 µM in the assay on L6-myotubes [1] (setting [5]) was more than 75%; with L6-myotubes [2] (setting [6]) it was less than 25%.

For `CC(C)(C[C@H]1CC[C@H](NS(C)(=O)=O)CC1)NC[C@H](O)c1cccc(C#N)n1` [Compound 426, 6-[(S)-2-{1,1-dimethyl-2-[(1r,4S)-4-(mesylamino)cyclohexyl]ethylamino}-1-hydroxyethyl]-2-pyridinecarbonitrile], the Emax at 10 µM with L6-myotubes [1] (setting [3]) is more than 75%; in the assay with L6-myotubes [2] (setting [4]), less than 25%.

As for `CO[C@H]1CC[C@H](C[C@]2(C)CC[C@H]([C@@H](O)c3cccc(F)c3)N2)CC1` [Compound 363, (S)-[(2R,5S)-5-methyl-5-{[(1r,4S)-4-methoxycyclohexyl]methyl}-2-pyrrolidinyl](m-fluorophenyl)methanol], the Emax at 10 µM with L6-myotubes [1] (setting [3]) is more than 75%; in the assay on L6-myotubes [2] (setting [4]), less than 25%.

Turning to `C[C@H]1CC[C@@H]([C@H](O)c2cccc(O)c2)N1` (racemic) [Compound 40, Racemic mixture of m-{(R)-[(2S,5S)-5-methyl-2-pyrrolidinyl] hydroxymethyl} phenol and m-{(S)-[(2R,5R)-5-methyl-2-pyrrolidinyl] hydroxymethyl} phenol], the Emax at 10 µM was 50 to 75% with L6-myotubes [1] (setting [5]) and less than 25% in the assay on L6-myotubes [2] (setting [6]).

Turning to `CCC[C@@H]1CC[C@H]([C@H](O)c2cccc(F)c2)N1` [Compound 58], the Emax at 10 µM with L6-myotubes [1] (setting [5]) was more than 75%; in the assay on L6-myotubes [2] (setting [6]) it was 25 to 50%.

Regarding `O[C@@H](c1cccc(F)c1)C12CCC(CCc3ccc(OC(F)(F)F)cc3)(CC1)N2` [Compound 544, (S)-(m-fluorophenyl){4-[2-(p-trifluoromethoxyphenyl)ethyl]-7-azabicyclo[[2.2.1]]hept-1-yl}methanol], the Emax at 10 µM in the assay on L6-myotubes [1] (setting [3]) and in the assay on L6-myotubes [2] (setting [4]) was less than 25% in each case.

For the molecule `O[C@H](c1cccc(F)c1)[C@H]1CCC2(CC2)N1` [Compound 170, (R)-{(R)-4-aza-5-spiro[2.4]heptyl}(m-fluorophenyl)methanol], the results for the Emax at 10 µM with L6-myotubes [1] (setting [5]) and in the assay on L6-myotubes [2] (setting [6]) were 50 to 75% and less than 25%, respectively.

For `CCCCNCC(O)c1cc(Cl)c(O)c(Cl)c1` (centres unmarked) [Compound 23, 2-(butylamino)-1-(3,5-dichloro-4-hydroxyphenyl)-1-ethanol], the Emax at 10 µM in the assay on L6-myotubes [1] (setting [5]) and with L6-myotubes [2] (setting [6]) was less than 25% in each case.

Turning to `CCCCNC[C@H](O)c1ccnc(N)n1` [Compound 73, (S)-1-(2-amino-4-pyrimidinyl)-2-(butylamino)-1-ethanol], the Emax at 10 µM in the assay on L6-myotubes [1] (setting [5]) was 25 to 50%; with L6-myotubes [2] (setting [6]) it was less than 25%.

Regarding `COc1ccc(C[C@@H]2CC[C@H]([C@H](O)c3cccc(F)c3)N2)cc1` [Compound 373, (R)-{(2R,5S)-5-[(p-methoxyphenyl)methyl]-2-pyrrolidinyl}(m-fluorophenyl)methanol], the Emax at 10 µM in the assay with L6-myotubes [1] (setting [3]) is more than 75%; in the assay with L6-myotubes [2] (setting [4]), 25 to 50%.

In the case of `CC(C)(C[C@H]1CC[C@H](N)CC1)NC[C@H](O)c1cncc(F)c1` [Compound 359, (R)-2-{1,1-dimethyl-2-[(1r,4R)-4-aminocyclohexyl]ethylamino}-1-(5-fluoro-3-pyridyl)-1-ethanol], the Emax at 10 µM in the assay with L6-myotubes [1] (setting [3]) was more than 75%; in the assay on L6-myotubes [2] (setting [4]), less than 25%.

On to `COc1ccc(CCC23CCC([C@@H](O)c4cncc(F)c4)(CC2)N3)cc1` [Compound 541, (S)-(5-fluoro-3-pyridyl){4-[2-(p-methoxyphenyl)ethyl]-7-azabicyclo[[2.2.1]]hept-1-yl}methanol], for which the Emax at 10 µM in the assay with L6-myotubes [1] (setting [3]) and in the assay with L6-myotubes [2] (setting [4]) was less than 25% each time.

Turning to `CO[C@@H]1CCC[C@H](C(C)(C)NC[C@H](O)c2cncc(F)c2)C1` [Compound 257, (R)-2-{1-[(1S,3R)-3-methoxycyclohexyl]-1-methylethylamino}-1-(5-fluoro-3-pyridyl)-1-ethanol], the Emax at 10 µM in the assay on L6-myotubes [1] (setting [3]) is 50 to 75%; in the assay with L6-myotubes [2] (setting [4]) it was less than 25%.

For the molecule `CC(C)(NC[C@H](O)c1cccc(F)c1)[C@H]1CC[C@H](O)CC1` [Compound 283, (R)-1-(m-fluorophenyl)-2-{1-methyl-1-[(1r,4R)-4-hydroxycyclohexyl]ethylamino}-1-ethanol], the Emax at 10 µM with L6-myotubes [1] (setting [3]) is 50 to 75%; with L6-myotubes [2] (setting [4]) it was less than 25%.

Consider `CC1(C)CC[C@H]([C@@H](O)c2ccccc2Cl)N1` [Compound 151], for which the Emax at 10 µM in the assay on L6-myotubes [1] (setting [5]) and in the assay with L6-myotubes [2] (setting [6]) was less than 25% throughout.

Consider `CO[C@H]1CC[C@@H](CCCNC[C@H](O)c2cncc(F)c2)CC1` [Compound 260, (R)-1-(5-fluoro-3-pyridyl)-2-{3-[(1s,4R)-4-methoxycyclohexyl]propylamino}-1-ethanol], for which the Emax at 10 µM in the assay with L6-myotubes [1] (setting [3]) was more than 75%; in the assay on L6-myotubes [2] (setting [4]), less than 25%.

Regarding `O[C@H](c1cncc(F)c1)C12CCC(C/C=C/c3ccccc3)(CC1)N2` [Compound 530, (R)-{4-[(E)-3-phenyl-2-propenyl]-7-azabicyclo[[2.2.1]]hept-1-yl}(5-fluoro-3-pyridyl)methanol], the Emax at 10 µM with L6-myotubes [1] (setting [3]) is more than 75%; with L6-myotubes [2] (setting [4]), 25 to 50%.

`CC(=O)N[C@H]1CC[C@H](CC(C)(C)NC[C@H](O)c2cccc(C#N)n2)CC1` [Compound 425]: the Emax at 10 µM with L6-myotubes [1] (setting [3]) was more than 75%; in the assay with L6-myotubes [2] (setting [4]), 25 to 50%.

Consider `CS(=O)(=O)N[C@H]1CC[C@H](CNC[C@H](O)c2cncc(F)c2)CC1` [Compound 313], for which the Emax at 10 µM in the assay with L6-myotubes [1] (setting [3]) was 25 to 50%; in the assay with L6-myotubes [2] (setting [4]), less than 25%.

For the origin of these results see patent publication US20260216294A1, “BETA 2-ADRENERGIC RECEPTOR AGONISTS FOR TREATMENT OR PREVENTION OF MUSCLE WASTING” (ATROGI AB, priority 2023, published 2026).
